Measured values as given in patent US20050070565A1, “Chelerythrine, analogs thereof and their use in the treatment of bipolar disorder and other cognitive disorders” (priority 2003, published 2005).
Entries after “also recorded” stand apart in the source; their conditions may differ.

Key:
rats [1] = assay: Spatial delayed alternation task in a T maze (working memory); assay type: in vivo, rat
Protocol: (§1) The influence of PKC activation on prefrontal cortical function was tested in rats and monkeys performing spatial working memory tasks that are critically dependant upon the integrity of the prefrontal cortex. All procedures were approved by the Yale Institutional Animal Care and Use Committee. Rats were trained on the spatial delayed alternation task in a T maze, or on a control task, spatial discrimination, which has similar motor and motivational demands but depends upon the posterior cortex and not the prefrontal cortex. Performance on the delayed alternation task is dependant upon the length of the delay between trials. The delay was raised as needed to maintain each individual animals performance at approximately 70% correct, allowing room for improvement or impairment in performance following drug administration.
Following behavioral training, rats were implanted with guide cannulae to allow drug infusions into the prefrontal cortex (stereotaxic coordinates from bregma and skull surface: anterior +3.2 mm, lateral ±0.75 mm, ventral −1.7 mm). The infusion needles projected 2.8 mm below the guide cannula such that the infusion site was −4.5 mm ventral to skull surface. Rats were allowed to recover for one week following surgery. Drug treatments were administered only after the animal achieved stable performance (60-80% correct) for two consecutive days. […] The PMA-induced working memory impairment was blocked by co-administration of chelerythrine, which had no effect on performance when administered alone (FIG. 10A). In contrast, PMA (5 picograms PMA/0.5 μl) had no effect on performance of the control spatial discrimination task (10 sec delays, mean performance after vehicle: 92.0%±11.0%, mean performance after PMA: 88.0%±13.0%, p=0.587, Tdep test).
(§2) NE α-1 adrenergic receptors are positively coupled to PKC through a Gq-protein linked to the PI intracellular signaling pathway (FIG. 1). Previous studies have shown that infusion of the α-1 adrenergic receptor agonist, phenylephrine, into the prefrontal cortex impairs working memory in both rats (Arnsten et al., 1999; FIGS. 2, 6 and 10B) and monkeys (Mao et al, 1999). Likewise, systemic injections of cirazoline, an α-1 adrenergic receptor agonist that crosses the blood brain barrier, impairs working memory in monkeys (FIGS. 5 and 10C). Thus, PKC was activated indirectly by infusing phenylephrine into the prefrontal cortex in rats (5 min prior to cognitive testing), or by systemic administration of cirazoline in monkeys (intramuscular injections, 30 min prior to cognitive testing). Monkeys had been previously trained on the spatial delayed response task, the task most commonly used to assess prefrontal cortical function in nonhuman primates. The PKC inhibitor, chelerythrine, was administered directly into the prefrontal cortex in rats (5 min prior to cognitive testing), or systemically in monkeys (oral administration, 60 min prior to cognitive testing).
(§3) The anxiogenic stressor, FG7142, was administered systemically to rats (interperitonial injection) or monkeys (intramuscular injection) 30 min prior to cognitive testing. Chelerythrine was administered directly into the prefrontal cortex in rats (15 min prior to cognitive testing), or systemically in monkeys (oral administration, 60 min prior to cognitive testing). […] This cognitive impairment was blocked by chelerythrine (FIGS. 11A and 11B), consistent with stress-induced activation of PKC.
(§4) Rats were injected with 0, 0.3, or 3.0 mg/kg chelerythrine s.c. in water approximately 45 minutes before cognitive testing; they receive an injection of the pharmacological stressor, FG7142 (15 mg/kg, i.p.) or vehicle 30 minutes prior to cognitive testing. All drug treatments occur at least one week apart, and the order of treatments is counterbalanced between animals. […] All ratings were performed by experimenters who were very familiar with the normative behavior of the animal but were unaware of the drug treatment conditions.

rhesus monkeys [2] = assay: Spatial delayed response task (working memory); assay type: in vivo, rhesus monkey
Source text: as §2, §3
(§5) Chelerythrine was administered orally to rhesus monkeys at doses of either […] or 0.3 mg/kg 60 min before cognitive testing, 30 minutes prior to stress exposure (FG7142 0.2-1.0 mg/kg, i.m.). In addition to cognitive testing, monkeys are also assessed for changes in sedation, agitation, aggression, motivation, food intake, and both fine and gross motor abilities. Four monkeys were tested.

rats [3] = assay: Response time per trial (stress-induced freezing) during delayed alternation testing; assay type: in vivo, rat
Protocol: FIG. 11 illustrates a summary whereby treatment with chelerythrine reverses the detrimental effects of: A. stress in rats; or B. stress in monkeys. […] In A, the anxiogenic stressor, FG7142 (range: 10 to 20 mg/kg), impaired delayed alternation performance compared to vehicle treatment in rats (vehicle+vehicle vs. FG7142+vehicle: * ANOVA-R, F1,10=25.095, p=0.001). The FG7142-induced cognitive deficit was reversed by infusion of the PKC inhibitor, chelerythrine, into the prefrontal cortex 15 min prior to testing (0.3 μg/0.5 μl; FG7142+vehicle vs. FG7142+chelerythrine: † F1,10=10.170, p=0.010). […] The FG7142-induced cognitive deficit was reversed by pretreatment with the PKC inhibitor, chelerythrine (0.03 mg/kg; FG7142+vehicle vs. FG7142+chelerythrine: † F1,4=21.23, p=0.006).
For example, stressors such as FG7142 induce freezing behaviors in rodents that effectively lengthen the delays and increase the memory demands of the task (FIG. 11C).

rats [4] = assay: Spatial discrimination control task; assay type: in vivo, rat; conditions: 5 picograms PMA/0.5 μl
Protocol: as §1
Following behavioral training, rats were implanted with guide cannulae to allow drug infusions into the prefrontal cortex (stereotaxic coordinates from bregma and skull surface: anterior +3.2 mm, lateral ±0.75 mm, ventral −1.7 mm). The infusion needles projected 2.8 mm below the guide cannula such that the infusion site was −4.5 mm ventral to skull surface. Rats were allowed to recover for one week following surgery. Drug treatments were administered only after the animal achieved stable performance (60-80% correct) for two consecutive days. […]

rats [5] = assay: Behavioral observations for side effects in home cage and during cognitive testing; assay type: in vivo, rat; conditions: 0.3 or 3.0 mg/kg s.c.
Protocol: as §4

rhesus monkeys [6] = assay: Assessment of sedation, agitation, aggression, motivation, food intake and motor abilities; assay type: in vivo, rhesus monkey; conditions: oral 0.03 or 0.3 mg/kg
Protocol: as §5

rats [7] = conditions: cited from earlier work
[8] = co-infusion into prefrontal cortex, chelerythrine 0.3 μg/0.5 μl

## CNC(=O)c1cc2c(cn1)[nH]c1ccccc12 [FG7142, reference compound]
Rats [1]; FG7142 10 to 20 mg/kg, 30 min prior to testing
  delayed alternation performance after stressor vs vehicle: impaired
Rhesus monkeys [2]; monkeys, FG7142 0.2 to 2.0 mg/kg injection
  delayed response performance after stressor vs vehicle: significantly impaired
Rats [3]; FG7142
  average response time for each trial after stressor vs vehicle: increased response time

## CCCCCCCCCCCCCC(=O)O[C@@H]1[C@@H](C)[C@@]2(O)[C@@H](C=C(CO)C[C@]3(O)C(=O)C(C)=C[C@@H]23)[C@@H]2C(C)(C)[C@]12OC(C)=O [PMA, phorbol 12-myristate 13-acetate]
Rats [1]; PMA infused into prefrontal cortex, 0.05 to 5 pg/0.5 μl, 10 min prior to testing
  delayed alternation performance after direct PKC activation vs vehicle: significantly impaired
Rats [4]
  effect on performance of control spatial discrimination task: no effect
Rats [4]; 10 sec delays, vehicle 92.0%±11.0%, p=0.587
  mean performance on control spatial discrimination task: 88.0%±13.0%

## COc1ccc2c(c[n+](C)c3c4cc5c(cc4ccc23)OCO5)c1OC.[Cl-] [chelerythrine, 1,2-dimethoxy-12-methyl[1,3]benzodioxolo[5,6-c]phenanthridinium]
Rats [1]; 0.3 mg/kg s.c., 45 min before testing, FG7142 15 mg/kg i.p., p=0.018, n=4
  effect on detrimental effects of stress exposure, lower systemic dose: significantly reversed
Rats [1]; 3.0 mg/kg s.c., FG7142 15 mg/kg i.p.
  effect on cognitive deficits due to stress, higher systemic dose: did not reverse
Rats [1]; 3.0 mg/kg s.c., no stressor, similar to vehicle
  average correct, drug on its own: 72.5 % correct
Rats [1]; [8]
  effect on PMA-induced working memory deficit: reversed; also recorded: blocked
  effect on phenylephrine-induced working memory deficit: significantly reversed
Rats [1]; infusion into prefrontal cortex 0.3 μg/0.5 μl, 15 min prior to testing
  effect on FG7142 (stress)-induced cognitive deficit: significantly reversed
Rats [1]; infusion into prefrontal cortex 3.0 μg/0.51 μl
  effect on stress response (cognitive deficit), higher infused dose: did not reverse
Rats [1]; infusion into prefrontal cortex 3.0 μg/0.51 μl, no stress
  performance when higher dose infused by itself: no effect
Rats [1]; infusion into prefrontal cortex, 0.3 μg/0.5 μl, no challenge
  delayed alternation performance, drug on its own: no effect
Rhesus monkeys [2]; monkeys, chelerythrine pretreatment 0.03 mg/kg
  effect on FG7142-induced cognitive deficit: reversed
Rhesus monkeys [2]; monkeys, chelerythrine pretreatment 0.03 mg/kg oral, 60 min prior to testing
  effect on cirazoline-induced working memory deficit: reversed
Rhesus monkeys [2]; monkeys, oral chelerythrine, no challenge
  delayed response (cognitive) performance, drug on its own: no effect
Rhesus monkeys [2]; rhesus monkeys, 0.03 mg/kg oral, other half required 0.3 mg/kg for full reversal
  share of monkeys with complete protection at the lower dose: Half of the monkeys showed complete protection
Rhesus monkeys [2]; rhesus monkeys, oral 0.03/kg or 0.3 mg/kg 60 min before testing, FG7142 0.2-1.0 mg/kg i.m., n=4, p<0.05
  effect on detrimental effects of stress on prefrontal cortical function: significantly reversed
Rats [3]; chelerythrine infused into prefrontal cortex
  effect on FG7142-induced increased response time: not blocked; also recorded: no effect on response time
Rats [5]
  side effects with administration by itself: no significant side effects
Rhesus monkeys [6]
  tolerability / side effects: well-tolerated with no side effects

## c1ccc(C2CC2)c(OCC2=NCCN2)c1 [cirazoline, reference compound]
Rhesus monkeys [2]; monkeys, cirazoline 0.001 to 10 μg/kg intramuscular, 30 min prior to testing
  delayed response performance after α-1 agonist vs vehicle: significantly impaired

## CNC[C@H](O)c1cccc(O)c1 [phenylephrine, reference compound]
Rats [1]; phenylephrine 0.1 μg/0.5 μl into prefrontal cortex, 5 min prior to testing
  delayed alternation performance after α-1 agonist infusion vs vehicle: significantly impaired

## COc1ccccc1N1CCN(CCCNc2cc(=O)n(C)c(=O)n2C)CC1 [urapidil]
Rats [7]; co-infusion of urapidil into prefrontal cortex
  effect on phenylephrine-induced working memory impairment (FIG. 2): prevented
Rats [7]; urapidil infused into prefrontal cortex
  effect on stress-induced working memory impairment (FIG. 3): prevented
